From patent US8124623B2, “5-hydroxymethyl-oxazolidin-2-one-derivatives and their uses as antibacterials” (Actelion Pharmaceuticals Ltd., priority 2006, dated 2012) come the findings set out here.

Values after ≈ are worked out from the molar mass of the structure shown.

In assay [1] the test system is Bacteroides fragilis A-992 ATCC 25285. The assay is described as follows: MIC, particular anaerobic bacterial strains. In kind it is cell-based. The conditions noted are these: ATCC25285.
Assay [2] deals with Bacteroides thetaiotaomicron A-990 ATCC 29741. The assay is described as follows: microbe, parasite or virus in culture. To be noted: ATCC29741. In kind it is cell-based.
Assay [3] deals with Eubacterium limosum A-1259 DSM 20698. In words: MIC, particular anaerobic bacterial strains. In kind it is cell-based.
The subject of assay [4] is Finegoldia magna A-1254 DSM 20470. The assay is described as follows: MIC, particular anaerobic bacterial strains. In kind it is cell-based.
In assay [5] the test system is Lactobacillus acidophilus A-1255 DSM 20079. The assay is described as follows: MIC, particular anaerobic bacterial strains. In kind it is cell-based.
Assay [6] has as its system Lactococcus lactis A-1256 DSM 20069. The assay is described as follows: MIC, particular anaerobic bacterial strains. In kind it is cell-based.
For assay [7], the system named is C. difficile strain NC13366. In kind it is cell-based. To be noted: 1 and 8 μg/mL, day 5 vs day 1, high density stationary phase cultures.
Assay [8] concerns C. difficile strain NC13366. In kind it is cell-based. To be noted: treated cultures compared to the untreated control, day 5.
Assay [9] has as its system toxigenic C. difficile strain 10465. In words: C. difficile hamster model. In kind it is in vivo, Golden Syrian hamsters. As for the experimental part:
Golden Syrian hamsters were given a single injection of clindamycin phosphate (10 mg/kg s.c.), and a day later animals were infected by gavage with 10^5 CFU of toxigenic C. difficile strain 10465. A fulminant colitis results in the majority (˜95%) of animals and develops 1 to 2 days after the administration of C. difficile. Untreated, the colitis progresses rapidly and turns into severe colitis, hemorrhagic necrosis of the cecum and death. The compound of Example 1 was administered orally as a suspension at three dosage levels (10 mg/kg, 30 mg/kg and 100 mg/kg; n=10 per group). Vancomycin (50 mg/kg) was used as a control. Animals were treated once daily for 5 days and afterwards maintain under observation for an additional 21 days.
The animals were observed three times daily for morbidity and presence or absence of diarrhoea. The final endpoint of the study was survival. Animals judged to be in a moribund state [extended period of weight loss progressing to an emaciated state, anorexia for 24-48 h, prolonged lethargy (more than 3 days), signs of paralysis, skin erosions or trauma, hunched posture, distended abdomen] were euthanized by a single injection of sodium pentobarbital.

The mark [10] stands for this setting: 10 mg/kg orally once daily for 5 days.
The mark [11] stands for this setting: 30 mg/kg orally once daily for 5 days.

Regarding `O=C(O)c1cn(C2CC2)c2cc(N3CCC(O)(COc4ccc(N5C[C@H](CO)OC5=O)cc4F)CC3)c(F)cc2c1=O` [Example 1, 1-cyclopropyl-6-fluoro-7-{4-[2-fluoro-4-((R)-5-hydroxymethyl-2-oxo-oxazolidin-3-yl)-phenoxymethyl]-4-hydroxy-piperidin-1-yl}-4-oxo-1,4-dihydro-quinoline-3-carboxylic acid], the MIC in assay [1] and in [2] was 8 µg/mL (≈ 13.7 µM) throughout. Also, the “less activity than compound of Example 5 of WO 2005/058888 (R1)” value in assay [3] was 4 times; in [4] it was 4 times; in [5], 8 times; in [6] it was 8 times. In addition, in [7], the “de novo toxin A production in supernatants” value is given as “inhibited de novo toxin A production”. The “reduction of toxin B activity of culture supernatants” value in assay [8] is listed as greater than 90%. In addition, the “animals surviving the 5 day treatment period” value in assay [9] (setting [10]), in assay [9] (setting [11]) and in assay [9] (100 mg/kg orally once daily for 5 days) was “all animals” each time. Also, the “animals surviving the relapse phase of 21 days after treatment” value in [9] (setting [10]) came to 40%. Moreover, the “animals surviving the relapse phase of 21 days after treatment without relapse” value in assay [9] (setting [11]) is 80%.
